Drawing on ChEMBL document CHEMBL1152245 (Bioorg Med Chem Lett, 2008), this text covers Activity, EC50 and IC50 for 21 compounds.

The source made the active and inactive calls. The rule behind the calls is not given here.

A word on the EC50: it is the concentration giving half of the maximal effect. The low end stands for greater potency, the high end for weaker potency. Usually IC50 stands for the midpoint of a concentration-inhibition curve. The low end stands for greater potency in that assay, the high end for weaker potency in that assay.

Common to all, as to format: functional
The target in test [1] is T1, Muscarinic acetylcholine receptor M3 (Homo sapiens, UniProt P20309). In words: Agonist activity at muscarinic M3 receptor at up to 30 uM.
Target sequence in this assay (P20309 whole entry, looked up): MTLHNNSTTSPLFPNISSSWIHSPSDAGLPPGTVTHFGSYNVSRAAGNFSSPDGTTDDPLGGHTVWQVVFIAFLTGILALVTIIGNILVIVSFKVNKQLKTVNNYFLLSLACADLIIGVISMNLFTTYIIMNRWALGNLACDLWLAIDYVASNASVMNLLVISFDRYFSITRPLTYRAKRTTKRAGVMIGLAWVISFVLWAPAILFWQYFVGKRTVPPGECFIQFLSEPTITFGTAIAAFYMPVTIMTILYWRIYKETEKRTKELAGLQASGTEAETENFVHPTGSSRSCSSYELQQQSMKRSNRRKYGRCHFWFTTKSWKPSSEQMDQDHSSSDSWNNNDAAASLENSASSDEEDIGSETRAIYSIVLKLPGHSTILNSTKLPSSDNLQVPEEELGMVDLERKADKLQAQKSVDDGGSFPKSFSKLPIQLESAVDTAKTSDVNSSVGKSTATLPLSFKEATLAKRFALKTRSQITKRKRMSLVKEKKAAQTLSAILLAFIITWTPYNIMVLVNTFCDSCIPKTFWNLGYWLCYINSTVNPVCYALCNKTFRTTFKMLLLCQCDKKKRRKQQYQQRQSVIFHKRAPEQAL
Test [2] has as its target T2, Muscarinic acetylcholine receptor M2 (Homo sapiens) (UniProt P08172).
T2 sequence (whole entry): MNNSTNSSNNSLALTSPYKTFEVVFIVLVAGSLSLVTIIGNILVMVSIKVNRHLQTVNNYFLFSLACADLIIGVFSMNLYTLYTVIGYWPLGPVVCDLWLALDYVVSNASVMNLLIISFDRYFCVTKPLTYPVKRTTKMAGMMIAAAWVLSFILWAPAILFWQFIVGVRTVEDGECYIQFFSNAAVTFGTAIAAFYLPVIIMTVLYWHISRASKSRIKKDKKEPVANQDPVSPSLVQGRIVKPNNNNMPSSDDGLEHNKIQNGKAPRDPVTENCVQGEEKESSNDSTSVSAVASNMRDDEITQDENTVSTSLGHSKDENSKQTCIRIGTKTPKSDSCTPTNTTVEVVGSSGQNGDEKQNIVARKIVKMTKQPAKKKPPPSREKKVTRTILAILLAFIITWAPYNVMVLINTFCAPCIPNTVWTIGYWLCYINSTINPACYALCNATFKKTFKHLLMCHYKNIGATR
In words: Agonist activity at muscarinic M2 receptor at up to 30 uM.

The target in test [3] is T3, Muscarinic acetylcholine receptor M1 (Homo sapiens, UniProt P11229).
T3 sequence (P11229 whole entry): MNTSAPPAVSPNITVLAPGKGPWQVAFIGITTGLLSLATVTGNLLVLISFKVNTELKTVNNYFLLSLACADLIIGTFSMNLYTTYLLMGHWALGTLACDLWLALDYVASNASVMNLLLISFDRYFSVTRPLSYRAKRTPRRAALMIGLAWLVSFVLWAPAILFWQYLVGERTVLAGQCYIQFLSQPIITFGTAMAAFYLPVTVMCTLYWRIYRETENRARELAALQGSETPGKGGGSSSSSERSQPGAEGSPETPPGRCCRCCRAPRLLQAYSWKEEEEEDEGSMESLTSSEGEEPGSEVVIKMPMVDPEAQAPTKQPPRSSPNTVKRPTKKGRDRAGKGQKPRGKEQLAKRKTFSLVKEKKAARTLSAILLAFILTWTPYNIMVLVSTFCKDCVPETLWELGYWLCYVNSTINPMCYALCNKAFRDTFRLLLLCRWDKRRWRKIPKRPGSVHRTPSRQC
Put plainly: Agonist activity at muscarinic M1 receptor.

Test [4] addresses T4, Muscarinic acetylcholine receptor M5 (Homo sapiens) (UniProt P08912).
T4 sequence (whole entry): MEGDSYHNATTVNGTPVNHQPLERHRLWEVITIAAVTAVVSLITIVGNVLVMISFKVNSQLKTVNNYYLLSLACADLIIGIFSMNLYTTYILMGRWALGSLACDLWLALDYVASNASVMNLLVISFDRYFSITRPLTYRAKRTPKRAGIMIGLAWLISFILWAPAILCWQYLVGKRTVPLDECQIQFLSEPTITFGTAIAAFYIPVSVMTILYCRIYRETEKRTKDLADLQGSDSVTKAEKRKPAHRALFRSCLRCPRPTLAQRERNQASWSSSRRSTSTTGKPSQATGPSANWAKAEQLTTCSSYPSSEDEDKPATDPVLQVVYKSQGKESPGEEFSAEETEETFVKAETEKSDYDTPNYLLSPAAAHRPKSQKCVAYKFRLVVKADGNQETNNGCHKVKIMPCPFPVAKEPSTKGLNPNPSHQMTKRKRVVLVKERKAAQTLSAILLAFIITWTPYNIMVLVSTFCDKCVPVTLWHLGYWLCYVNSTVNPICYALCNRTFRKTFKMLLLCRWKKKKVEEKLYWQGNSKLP
Put plainly: Agonist activity at muscarinic M5 receptor at up to 30 uM.

In test [5] the target is T5, Muscarinic acetylcholine receptor M4 (Homo sapiens) (UniProt P08173).
T5 sequence (whole entry): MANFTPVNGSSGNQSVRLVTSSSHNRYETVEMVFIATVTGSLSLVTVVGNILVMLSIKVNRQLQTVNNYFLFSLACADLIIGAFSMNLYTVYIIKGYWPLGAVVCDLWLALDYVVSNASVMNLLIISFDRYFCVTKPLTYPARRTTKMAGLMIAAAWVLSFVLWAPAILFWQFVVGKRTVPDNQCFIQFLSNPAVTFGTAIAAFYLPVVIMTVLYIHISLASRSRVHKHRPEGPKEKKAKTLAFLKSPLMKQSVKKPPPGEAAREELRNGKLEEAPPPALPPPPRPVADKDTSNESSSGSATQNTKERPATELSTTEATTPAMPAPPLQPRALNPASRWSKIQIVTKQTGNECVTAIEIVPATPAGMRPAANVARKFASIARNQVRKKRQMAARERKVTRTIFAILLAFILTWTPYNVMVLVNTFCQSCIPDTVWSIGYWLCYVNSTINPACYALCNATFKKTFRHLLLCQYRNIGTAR
In words: Agonist activity at muscarinic M4 receptor at up to 30 uM.

Test [6] concerns the target T6, Muscarinic acetylcholine receptor M1 (Homo sapiens) (UniProt P11229).
T6 sequence (whole entry): T3 sequence (P11229 whole entry)
In words: Agonist activity at muscarinic M1 receptor relative to carbachol.

The target in test [7] is T7, Muscarinic acetylcholine receptor M4 (Homo sapiens, UniProt P08173).
T7 sequence (P08173 whole entry): T5 sequence (whole entry)
Put plainly: Agonist activity at muscarinic M4 receptor.

In test [8] the target is T8, Muscarinic acetylcholine receptor M2 (Homo sapiens, UniProt P08172).
T8 sequence (P08172 whole entry): T2 sequence (whole entry)
Put plainly: Agonist activity at muscarinic M2 receptor.

For test [9], the target named is T1, Muscarinic acetylcholine receptor M3. Put plainly: Agonist activity at muscarinic M3 receptor.
Target sequence in this assay (P20309 whole entry): as the sequence (P20309 whole entry, looked up) above
The target of another test is D(2) dopamine receptor (Homo sapiens, UniProt P14416). In words: Antagonist activity at dopamine D2 receptor.
The target of test [10] is T9, Muscarinic acetylcholine receptor M5 (Homo sapiens, UniProt P08912).
T9 sequence (P08912 whole entry): T4 sequence (whole entry)
Put plainly: Agonist activity at muscarinic M5 receptor.

The target in test [11] is T5, Muscarinic acetylcholine receptor M4 (Homo sapiens). Put plainly: Agonist activity at muscarinic M4 receptor relative to carbachol.
Test [12] concerns the target T4, Muscarinic acetylcholine receptor M5 (Homo sapiens). In words: Agonist activity at muscarinic M5 receptor relative to carbachol.
Test [13] has as its target T2, Muscarinic acetylcholine receptor M2 (Homo sapiens). In words: Agonist activity at muscarinic M2 receptor relative to carbachol.

Chain of D(2) dopamine receptor (P14416 whole entry): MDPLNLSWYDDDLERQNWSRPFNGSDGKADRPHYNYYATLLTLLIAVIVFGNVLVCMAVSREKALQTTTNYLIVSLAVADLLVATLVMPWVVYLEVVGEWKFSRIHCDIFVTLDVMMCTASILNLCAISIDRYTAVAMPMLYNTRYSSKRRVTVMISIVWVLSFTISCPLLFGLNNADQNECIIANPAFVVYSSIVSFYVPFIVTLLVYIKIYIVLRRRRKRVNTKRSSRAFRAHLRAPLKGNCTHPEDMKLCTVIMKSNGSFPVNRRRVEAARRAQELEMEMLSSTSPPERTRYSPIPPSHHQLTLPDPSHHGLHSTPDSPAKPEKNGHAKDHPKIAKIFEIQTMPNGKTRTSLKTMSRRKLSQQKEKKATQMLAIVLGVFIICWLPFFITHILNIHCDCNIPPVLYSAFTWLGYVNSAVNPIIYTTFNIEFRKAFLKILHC

`Cc1ccccc1C(=O)N1CCC(N2CCC(n3c(=O)[nH]c4ccccc43)CC2)CC1`: the outcome in [1], in test [2], in test [4] and in test [5] was inactive. This compound also returned an EC50 in test [3] of 0.88 µM. This compound also returned an Activity in test [6] of 60%.

With `O=C(Nc1cccc(SC(F)(F)F)c1)N1CCC(N2CCC(n3c(=O)[nH]c4ccc(F)cc43)CC2)CC1`, the EC50 in test [7] was more than 30 µM; in test [3], 9.6 µM; in test [8], more than 30 µM; in [9] it was more than 30 µM. The compound further showed an Activity in test [6] of 72%.

For the compound `O=c1[nH]c2c(F)cccc2n1C1CCN(C2CCN(S(=O)(=O)c3ccccc3)CC2)CC1`, the half-maximal effective concentration (EC50) in test [7] was more than 30 µM; in [3], 2.6 µM; in test [8] it was more than 30 µM; in [9], more than 30 µM. Besides, the Activity in test [6] turned out to be 49%.

Turning to `O=c1[nH]c2cc(F)ccc2n1C1CCN(C2CCN(S(=O)(=O)c3ccccc3)CC2)CC1`, the EC50 in test [7] is more than 30 µM; in test [3] it was 2.3 µM; in [8] it was more than 30 µM; in test [10], more than 30 µM; in [9], more than 30 µM. Besides, the IC50 against D(2) dopamine receptor was found to be 3.6 µM. The same compound came in with an Activity in [6] of 82%.

Turning to `O=C(c1cccc(Cl)c1)N1CCC(N2CCC(n3c(=O)[nH]c4cc(Cl)ccc43)CC2)CC1`, the result in test [1], in [2], in [4] and in test [5] was inactive. This compound displayed an EC50 in [3] of 7.11 µM. In [6], this compound displayed an Activity of 21%.

As for `O=c1[nH]c2ccc(F)cc2n1C1CCN(C2CCN(S(=O)(=O)c3ccccc3)CC2)CC1`, the concentration giving a half-maximal response (EC50) was more than 30 µM in [7]; 3.3 µM in test [3]; more than 30 µM in test [8]; more than 30 µM in test [10]; more than 30 µM in [9]. Moreover, the 50% inhibitory concentration (IC50) on D(2) dopamine receptor was more than 10 µM. In addition, the Activity in test [6] came to 76%.

For `O=C(c1ccccc1C(F)(F)F)N1CCC(N2CCC(n3c(=O)[nH]c4cc(Cl)ccc43)CC2)CC1`, the result in [1], in test [2], in test [4] and in test [5] was inactive. In addition, the EC50 in test [3] worked out at 11.1 µM. The compound further had an Activity in test [6] of 24%.

In the case of `Cc1ccccc1C(=O)N1CCC(N2CCC(n3c(=O)[nH]c4cc(Cl)ccc43)CC2)CC1`, the outcome in [1], in test [2], in test [4] and in test [5] was inactive. Besides, in test [3], the concentration for a half-maximal effect (EC50) amounted to 2.71 µM. The same compound returned an Activity in [6] of 56%.

`O=c1[nH]c2ccccc2n1C1CCN(C2CCN(S(=O)(=O)c3ccccc3)CC2)CC1` came in with an EC50 in [3] of 1.4 µM. Also, in test [6], the Activity turned out to be 82%.

Consider `O=C(Nc1cccc(SC(F)(F)F)c1)N1CCC(N2CCC(n3c(=O)[nH]c4cc(Cl)ccc43)CC2)CC1`, for which the concentration for a half-maximal effect (EC50) was more than 30 µM in test [7], 3.6 µM in test [3], more than 30 µM in test [8] and more than 30 µM in test [9]. In addition, the Activity in test [6] was 90%.

With `Cc1cccc(C(=O)N2CCC(N3CCC(n4c(=O)[nH]c5cc(Cl)ccc54)CC3)CC2)c1`, the outcome in test [1], in test [2], in test [4] and in [5] was inactive. In [3], this compound showed an EC50 of 2.11 µM. In test [6], this compound displayed an Activity of 50%.

As for `O=C(Nc1cccc(SC(F)(F)F)c1)N1CCC(N2CCC(n3c(=O)[nH]c4c(F)cccc43)CC2)CC1`, the concentration for a half-maximal effect (EC50) in test [7] is more than 30 µM; in test [3] it was more than 10 µM; in test [8] it was more than 30 µM; in test [9], more than 30 µM. Further, in [6], the Activity was found to be 46%.

For the compound `O=C(Nc1cccc(SC(F)(F)F)c1)N1CCC(N2CCC(n3c(=O)[nH]c4ccccc43)CC2)CC1`, the EC50 in test [7] is more than 30 µM; in [3], 6.5 µM; in [8], more than 30 µM; in test [9] it was more than 30 µM. The compound also gave an Activity in test [6] of 85%.

`O=c1[nH]c2ccccc2n1C1CCN(C2CCN(Cc3ccccc3C(F)(F)F)CC2)CC1` returned an Activity in test [6] of 80%.

In turn, `Cc1ccccc1CN1CCC(N2CCC(n3c(=O)[nH]c4ccccc43)CC2)CC1` yielded an IC50 against D(2) dopamine receptor of 5.1 µM.

Turning to `O=C(c1ccccc1C(F)(F)F)N1CCC(N2CCC(n3c(=O)[nH]c4ccccc43)CC2)CC1`, the result in [1], in [2], in test [4] and in [5] was inactive. In test [3], this compound yielded an EC50 of 0.91 µM. Also, the Activity in test [6] was found to be 32%.

For `NC(=O)OCCN1CCC(N2CCC(n3c(=O)[nH]c4ccccc43)CC2)CC1`, the figures for the Activity in test [11], in test [12] and in test [13] were 96.9%, 50.8% and 80.6%, respectively. The EC50 in test [7] is 0.0091 µM; in test [8], 0.0119 µM; in [10] it was 0.0343 µM.

For `O=c1[nH]c2cc(Cl)ccc2n1C1CCN(C2CCN(S(=O)(=O)c3ccccc3)CC2)CC1`, the 50% effective concentration (EC50) in [7] is more than 30 µM; in test [3], 4.1 µM; in test [8], more than 30 µM; in [9] it was more than 30 µM. The compound also yielded an Activity in test [6] of 82%.

`Cc1cccc(C(=O)N2CCC(N3CCC(n4c(=O)[nH]c5ccccc54)CC3)CC2)c1`: the outcome in [1], in [2], in [4] and in [5] was inactive. Moreover, the EC50 in test [3] was determined as 0.51 µM. Further, the Activity in test [6] was determined as 53%.

Take `O=c1[nH]c2cc(Br)ccc2n1C1CCN(C2CCN(S(=O)(=O)c3ccccc3)CC2)CC1`: the EC50 was more than 30 µM in [7], 4.4 µM in test [3], more than 30 µM in test [8] and more than 30 µM in [9]. The Activity in test [6] was 81%.

On to `O=C(c1cccc(Cl)c1)N1CCC(N2CCC(n3c(=O)[nH]c4ccccc43)CC2)CC1`, for which the result in [1], in test [2], in test [4] and in [5] was inactive. The compound also displayed an EC50 in test [3] of 0.93 µM. Also, the Activity in test [6] came out at 21%.
